According to publication PMC12527934 (Nature, 2025):
*1 amine or outer side, *2 acyl side, *3 side chain or, on linkers, in order; H or OH if unused. Where a SMILES comes first, the peptide text is derived from it. Bridges are numbered along the chain shown (N, C = ends). [ ]: non-standard residue; d: D form. The star is where a group is joined. X4 = CN([C@@H](Cc1cc(Cl)ccc1-c1cnn(C)c1)C(=O)[*:2])[*:1]; X5 = CN([C@@H](Cc1cc(Cl)nn1-c1ccccc1)C(=O)[*:2])[*:1]; cBuCO(3,3-F2-1-CF3) = O=C(C1(C(F)(F)F)CC(F)(F)C1)*; NMePhe(2,5-Cl2) = CN[C@@H](Cc1cc(Cl)ccc1Cl)C(=O)O; X2 = CCCN([C@@H](Cc1cc(Cl)ccc1Cl)C(=O)[*:2])[*:1]; Nle(6-morpholino) = N[C@@H](CCCCN1CCOCC1)C(=O)O; X6 = CN([C@H](Cc1cc(Cl)ccc1Cl)C(=O)[*:2])[*:1]; Pro(trans-4-F) = O=C(O)[C@@H]1C[C@@H](F)CN1; dPro(trans-4-F) = O=C(O)[C@H]1C[C@H](F)CN1; X3 = O=C([C@@H](c1cccnc1)C1CCCCC1)*; Gly(cPr) = N[C@H](C(=O)O)C1CC1; X1 = C[C@@](O)(C(=O)*)C(F)(F)F; Cba = N[C@@H](CC1CCC1)C(=O)O; NMeK = CN[C@@H](CCCCN)C(=O)O; dCba = N[C@H](CC1CCC1)C(=O)O; dNMeK = CN[C@H](CCCCN)C(=O)O; dNva = CCC[C@@H](N)C(=O)O; Ac3c = NC1(C(=O)O)CC1; Aib = CC(C)(N)C(=O)O

Assays:
[1] = tested on: p-KNL1 in NCI-H1048 cells; test: Immunoblot of p-KNL1; format: cell-based, human
RPE1 cells = test: Cell-count dose–response assay; format: cell-based, human; details: RPE1, even at high doses
46 human SCLC cell lines = test: Cell Titer Glo proliferation assay, panel of 46 SCLC cell lines; format: cell-based; details: 4–8 days
[2] = tested on: human peripheral blood CD34+ cells; format: cell-based; details: CD34+ haematopoietic stem and progenitor cells, even at high doses
NCI-H1048 cells [3] = test: Live-cell imaging of mitosis; format: cell-based, human; details: NCI-H1048 GFP–H2B, 20 nM
NCI-H69 cells = test: Nocodazole synchronization, propidium iodide FACS; format: cell-based, human; details: NCI-H69, 60 ng ml−1, overnight
NCI-H69 xenografts = test: NCI-H69 cell line xenograft efficacy study; format: in vivo, mouse; details: 100 mg per kg daily i.v. 14 days
NCI-H1048 xenografts = test: NCI-H1048 cell line xenograft efficacy study; format: in vivo, mouse; details: 100 mg per kg daily i.v. 14 days
[4] = Body weight, NCI-H69 xenograft study; format: in vivo, mouse; details: 100 mg per kg daily 14 days
[5] = Body weight, NCI-H1048 xenograft study; format: in vivo, mouse; details: 100 mg per kg daily 14 days
NCI-H1048 cells [6] = test: Cell-count dose–response assay; format: cell-based, human; details: for activity in proliferation, apoptosis and cell cycle assays: NCI-H1048

With `COc1ccc(Oc2cc(NCCC(F)(F)F)c3ncc(-c4ccc(C(=O)NC5CC5)c(C)c4)n3n2)c(F)c1F` [BAY-1217389] as the compound, how does the “KNL1 phosphorylation and proliferation” value ([1]; 3 nM, NCI-H1048) read?
The value was “blocked KNL1 phosphorylation without affecting proliferation”.

Which “sensitivity of normal cells (mitotic arrest, apoptosis)” value (RPE1 cells) does the source give for `CC(C)C[C@@H]1NC(=O)[C@@H](N(C)C(=O)[C@H](CC2CCC2)NC(=O)[C@@H]2C[C@@H](F)CN2C(=O)C2(C(F)(F)F)CC(F)(F)C2)CCCCNC(=O)C2(CC2)NC(=O)[C@H](Cc2cc(Cl)ccc2Cl)N(C)C1=O` [CIRc-004] ({cBuCO(3,3-F2-1-CF3)}-[Pro(trans-4-F)][Cba][NMeK]L[NMePhe(2,5-Cl2)][Ac3c]; lactam 3-C) here?
The value was “insensitive”.

And the “sensitivity of 46 SCLC cell lines in anti-proliferation assays” value (46 human SCLC cell lines)?
The value was “Nearly all lines were highly sensitive”.

What about the “sensitivity of normal cells (mitotic arrest, apoptosis)” value [2] of the same compound?
The value was “insensitive”.

What about the “anaphase initiation (live-cell imaging)” value (NCI-H1048 cells [3]) of the same compound?
The value was “blocked anaphase initiation”.

Which “cells in mitotic arrest” value (NCI-H69 cells) does the source give for `COC(=O)Nc1nc2ccc(C(=O)c3cccs3)cc2[nH]1` [nocodazole] here?
The value was “around 90%”.

Which tumour response (NCI-H69 xenografts) does the source give for `CCCN1C(=O)[C@H](CC(C)C)NC(=O)[C@@H](N(C)C(=O)[C@H](CC2CCC2)NC(=O)[C@@H]2C[C@@H](F)CN2C(=O)[C@@](C)(O)C(F)(F)F)CCCCNC(=O)C2(CC2)NC(=O)[C@@H]1Cc1cc(Cl)ccc1Cl` [CIRc-028] (X1-[Pro(trans-4-F)][Cba][NMeK]L[X2][Ac3c]; lactam 3-C) here?
Its tumour response is “induced tumour regressions”.

What about the tumour response (NCI-H1048 xenografts) of the same compound?
Its tumour response is “substantially inhibited growth”.

And the “tolerability, body weight” value [4]?
The value was “well tolerated without weight loss”.

What about the “tolerability, body weight” value [5] of the same compound?
The value was “well tolerated without weight loss”.

For `COCc1cc(C(=O)Nc2cc([C@H]3CC[C@@H](OC(=O)NC(C)C)C3)[nH]n2)n(C)n1` [PF-07104091], which SAC activation ([1]; NCI-H1048 cells, 24 h) is on record?
Its SAC activation is “did not activate the SAC”.

Which “effect on cellular proliferation” value (NCI-H1048 cells [6]; NCI-H1048, 200 nM) does the source give for `CC(C)C[C@H]1NC(=O)[C@H](N(C)C(=O)[C@@H](CC2CCC2)NC(=O)[C@H]2C[C@H](F)CN2C(=O)C2(C(F)(F)F)CC(F)(F)C2)CCCCNC(=O)C2(CC2)NC(=O)[C@@H](Cc2cc(Cl)ccc2Cl)N(C)C1=O` [CIRc-005] ({cBuCO(3,3-F2-1-CF3)}-[dPro(trans-4-F)][dCba][dNMeK][dL][X6][Ac3c]; lactam 3-C) here?
Its value is “had no effect on cellular proliferation”.

Which “activity in proliferation, apoptosis and cell cycle assays” value (NCI-H1048 cells [6]) does the source give for `CC(C)C[C@@H]1NC(=O)[C@@H](N(C)C(=O)[C@@H](NC(=O)[C@@H]2C[C@@H](F)CN2C(=O)C2(C(F)(F)F)CC(F)(F)C2)C2CC2)CCCCNC(=O)C(C)(C)NC(=O)[C@H](Cc2cc(Cl)nn2-c2ccccc2)N(C)C1=O` [CIRc-019] ({cBuCO(3,3-F2-1-CF3)}-[Pro(trans-4-F)][Gly(cPr)][NMeK]L[X5][Aib]; lactam 3-C) here?
Its value is “lacked activity”.

For `CCC[C@H]1NC(=O)[C@H](Cc2cc(Cl)ccc2-c2cnn(C)c2)N(C)C(=O)[C@H](CC(C)C)NC(=O)[C@@H](N(C)C(=O)[C@H](CCCCN2CCOCC2)NC(=O)[C@@H](c2cccnc2)C2CCCCC2)CCCCNC1=O` [CIRc-018] (X3-[Nle(6-morpholino)][NMeK]L[X4][dNva]; lactam 2-C), which “activity in proliferation, apoptosis and cell cycle assays” value (NCI-H1048 cells [6]) is on record?
Its value is “lacked activity”.
